From patent US9464056B2, “Fungicidal 4-methylanilino pyrazoles” (E. I. DU PONT DE NEMOURS AND COMPANY, priority 2012, dated 2016)

Columns and labels:
Assay type in all cases: in vivo
Septoria tritici = experiment: Test D: preventive spray on wheat seedlings, Septoria tritici (wheat leaf blotch), visual disease rating; conditions: Zymoseptoria tritici, topical, 504 h, 100 = 100% disease control, 0 = no disease control relative to controls
Excerpt: General protocol for preparing test suspensions for Tests A-H: the test compounds were first dissolved in acetone in an amount equal to 3% of the final volume and then suspended at the desired concentration (in ppm) in acetone and purified water (50/50 mix by volume) containing 250 ppm of the surfactant Trem® 014 (polyhydric alcohol esters). The resulting test suspensions were then used in Tests A-F. Spraying a 40 ppm test suspension to the point of run-off on the test plants was the equivalent of a rate of 160 g/ha. Unless otherwise indicated, the rating values indicate a 40 ppm test suspension was used. The test suspension was sprayed to the point of run-off on wheat seedlings. The following day the seedlings were inoculated with a spore suspension of Septoria tritici (the causal agent of wheat leaf blotch) and incubated in saturated atmosphere at 24° C. for 48 h, and then moved to a growth chamber at 20° C. for 19 days, after which time visual disease ratings were made. Results for Tests A-F are given in Table A. In the Table, a rating of 100 indicates 100% disease control and a rating of 0 indicates no disease control (relative to the controls). A dash (-) indicates no test results.

[1] = system: Puccinia recondita f. sp. tritici; experiment: Test E2: preventive spray on wheat seedlings, Puccinia recondita f. sp. tritici (wheat leaf rust), visual disease rating; conditions: topical, 192 h, 100 = 100% disease control, 0 = no disease control relative to controls
Excerpt: General protocol for preparing test suspensions for Tests A-H: the test compounds were first dissolved in acetone in an amount equal to 3% of the final volume and then suspended at the desired concentration (in ppm) in acetone and purified water (50/50 mix by volume) containing 250 ppm of the surfactant Trem® 014 (polyhydric alcohol esters). The resulting test suspensions were then used in Tests A-F. Spraying a 40 ppm test suspension to the point of run-off on the test plants was the equivalent of a rate of 160 g/ha. Unless otherwise indicated, the rating values indicate a 40 ppm test suspension was used. The test suspension was sprayed to the point of run-off on wheat seedlings. The following day the seedlings were inoculated with a spore suspension of Puccinia recondita f. sp. tritici (the causal agent of wheat leaf rust) and incubated in a saturated atmosphere at 20° C. for 24 h, and then moved to a growth chamber at 20° C. for 7 days, after which time visual disease ratings were made. Results for Tests A-F are given in Table A. In the Table, a rating of 100 indicates 100% disease control and a rating of 0 indicates no disease control (relative to the controls). A dash (-) indicates no test results.

[2] = Single oral dose pharmacokinetics in rats, plasma and fat analysed by LC/MS (fat:plasma ratio); conditions: vertebrate animals (rats), single oral gavage dose; compared to corresponding analogs
Procedure: The pharmacokinetic properties of compounds of Formula 1 can be measured using a wide variety of assay protocols known in the science of pharmacology. In one illustrative method involving a single oral dose, three male and three female rats receive a single dose of a test substance via oral gavage. Approximately 0.25 mL of blood is collected via tail vein immediately prior to dosing, and then at 0.25, 0.5, 1, 2, 4, 8, 12, 24 h and every 24 h thereafter until sacrifice. At sacrifice, fat is also collected to determine the fat:plasma ratio at sacrifice. […] After removal of the proteins, the plasma is analyzed for parent compound and/or metabolites by liquid chromatography-mass spectrometry (LC/MS). […] The extract is then analyzed for parent compound and/or metabolites by LC/MS. The plasma pharmacokinetic data is then analyzed using nonlinear modeling software (e.g., WinNonlin™ from Pharsight, Cary, N.C., U.S.A.) to determine half-life of the administered compound in plasma, the time after administration when the maximum plasma concentration is reached (Tmax), the maximum plasma concentration (Cmax) and the area under the plasma concentration curve (AUC). […] However, by using multiple rats sacrificed after different intervals from time of dosing, such parameters as Cmax for fat are determined.

Cc1cc(F)c(Nc2c(-c3ccc(F)cc3Cl)c(C)nn2C)c(Br)c1 [Compound 1, N-(2-bromo-6-fluoro-4-methylphenyl)-4-(2-chloro-4-fluorophenyl)-1,3-dimethyl-1H-pyrazol-5-amine]
pest or weed control at 40 µg/mL (Septoria tritici): 100% | pest or weed control at 40 µg/mL [1]: 100% | distribution into fat [2]: significantly diminished distribution into fat
